The values below come from US7238701B2, “Substituted tetrahydrobenzothienopyrimidinamine compounds useful for treating hyper-proliferative disorders” (Bayer Pharmaceuticals Corporation, priority 2003, dated 2007).

The subject of experiment [1] is A431cells (human epidermoid carcinoma). The experiment is described as follows: In vitro tumor cell proliferation assay (Cell Titer-Glo luminescent cell viability), A431 cells. The class given is cell-based. The settings on record: A-431, 72 h, 72 hours drug exposure, 10% Fetal Bovine Serum, ATP luminescence readout, read-out: IC50 (50% inhibition of cell proliferation). The gist of the method:
(§1)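 ATP luminescence (CellTiter-Glo) measured proliferation after 72 h compound exposure at 37 °C, giving IC50 values. Serial dilutions spanning 64 pM–100 μM in 0.1% DMSO were applied one day after plating 2.5×10^3 cells/well in RPMI plus 10% fetal bovine serum.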

For experiment [2], the system named is BT474 (human breast carcinoma). The experiment is described as follows: In vitro tumor cell proliferation assay (Cell Titer-Glo luminescent cell viability), BT474 cells. Format: cell-based. The settings on record: BT-474, 72 hours drug exposure, 10% Fetal Bovine Serum, ATP luminescence readout, read-out: IC50 (50% inhibition of cell proliferation). The procedure, abridged: as §1

As to `Fc1cccc(COc2ccc(Nc3ncnc4sc5c(c34)CCC(CCN3CCCC3)C5)cc2Cl)c1` (stereo not shown) [Example 161, N-{3-chloro-4-[(3-fluorobenzyl)oxy]phenyl}-7-(2-pyrrolidin-1-ylethyl)-5,6,7,8-tetrahydro[1]benzothieno[2,3-d]pyrimidin-4-amine], the IC50 in experiment [1] and in experiment [2] was less than 5 µM throughout.

Consider `COCCN(C)CCC1CCc2c(sc3ncnc(Nc4ccc(OCc5ccccn5)c(Cl)c4)c23)C1` (stereo not shown) [Example 189, N-[3-chloro-4-(pyridin-2-ylmethoxy)phenyl]-7-{2-[(2-methoxyethyl)(methyl)amino]ethyl}-5,6,7,8-tetrahydro[1]benzothieno[2,3-d]pyrimidin-4-amine], for which the IC50 in experiment [1] and in experiment [2] was less than 5 µM in each case.

As to `CC1CCCN1CCC1CCc2c(sc3ncnc(Nc4ccc5c(cnn5Cc5ccccc5)c4)c23)C1` (stereo not shown) [Example 238, N-(1-benzyl-1H-indazol-5-yl)-7-[2-(2-methylpyrrolidin-1-yl)ethyl]-5,6,7,8-tetrahydro[1]benzothieno[2,3-d]pyrimidin-4-amine], the IC50 was less than 50 µM in experiment [1] and less than 5 µM in experiment [2].

Consider `Clc1cc(Nc2ncnc3sc4c(c23)CCC(CCNCCN2CCOCC2)C4)ccc1OCc1ccccn1` (stereo not shown) [Example 192, N-[3-chloro-4-(pyridin-2-ylmethoxy)phenyl]-7-{2-[(2-morpholin-4-ylethyl)amino]ethyl}-5,6,7,8-tetrahydro[1]benzothieno[2,3-d]pyrimidin-4-amine], for which the IC50 in experiment [1] and in experiment [2] was less than 5 µM in each case.

Regarding `COCCNC(=O)C1CCc2c(sc3ncnc(Nc4ccc(F)c(Cl)c4)c23)C1` (stereo not shown) [Example 16, 4-[(3-chloro-4-fluorophenyl)amino]-N-(2-methoxyethyl)-5,6,7,8-tetrahydro[1]benzothieno[2,3-d]pyrimidine-7-carboxamide], the IC50 in experiment [1] and in experiment [2] was less than 50 µM each time.

As to `O=C(CC1CCc2c(sc3ncnc(Nc4cccc(Br)c4)c23)C1)NCCN1CCOCC1` (stereo not shown) [Example 69], the IC50 in experiment [1] and in experiment [2] was less than 50 µM each time.

`O=C(CC1CCc2c(sc3ncnc(Nc4ccc(F)c(Cl)c4)c23)C1)N1CCOCC1` (stereo not shown) [Example 61, N-(3-chloro-4-fluorophenyl)-7-[2-(4-morpholinyl)-2-oxoethyl]-5,6,7,8-tetrahydro[1]benzothieno[2,3-d]pyrimidin-4-amine]: the IC50 in experiment [1] was less than 5 µM; in experiment [2] it was less than 50 µM.

For the compound `CS(=O)(=O)CCNCCC1CCc2c(sc3ncnc(Nc4cccc(Br)c4)c23)C1` (stereo not shown) [Example 84, N-(3-bromophenyl)-7-(2-{[2-(methylsulfonyl)ethyl]amino}ethyl)-5,6,7,8-tetrahydro[1]benzothieno[2,3-d]pyrimidin-4-amine], the IC50 in experiment [1] and in experiment [2] was less than 5 µM throughout.

Turning to `CN(C)[C@@H]1CCN(CCC2CCc3c(sc4ncnc(Nc5ccc(F)c(Cl)c5)c34)C2)C1` (stereo partly drawn) [Example 100, N-(3-chloro-4-fluorophenyl)-7-{2-[(3R)-3-(dimethylamino)-1-pyrrolidinyl]ethyl}-5,6,7,8-tetrahydro[1]benzothieno[2,3-d]pyrimidin-4-amine], the IC50 in experiment [1] and in experiment [2] was less than 50 µM in each case.

Turning to `CN(C)[C@H]1CCN(CCC2CCc3c(sc4ncnc(Nc5ccc(OCc6cccc(F)c6)c(Cl)c5)c34)C2)C1` (stereo partly drawn) [Example 140, N-{3-chloro-4-[(3-fluorobenzyl)oxy]phenyl}-7-{2-[(3S)-3-(dimethylamino)pyrrolidin-1-yl]ethyl}-5,6,7,8-tetrahydro[1]benzothieno[2,3-d]pyrimidin-4-amine], the IC50 in experiment [1] and in experiment [2] was less than 5 µM in each case.

`Fc1cccc(COc2ccc(Nc3ncnc4sc5c(c34)CCC(CCN3CCSCC3)C5)cc2Cl)c1` (stereo not shown) [Example 199, N-{3-chloro-4-[(3-fluorobenzyl)oxy]phenyl}-7-(2-thiomorpholin-4-ylethyl)-5,6,7,8-tetrahydro[1]benzothieno[2,3-d]pyrimidin-4-amine]: the IC50 in experiment [1] was less than 50 µM; in experiment [2] it was less than 5 µM.

With `COCCNC(=O)CC1CCc2c(sc3ncnc(Nc4ccc(OCc5ccc(F)cc5)c(Cl)c4)c23)C1` (stereo not shown) [Example 146, 2-[4-({3-chloro-4-[(4-fluorobenzyl)oxy]phenyl}amino)-5,6,7,8-tetrahydro[1]benzothieno[2,3-d]pyrimidin-7-yl]-N-(2-methoxyethyl)acetamide], the IC50 in experiment [1] and in experiment [2] was less than 50 µM throughout.

In the case of `Clc1cc(Nc2ncnc3sc4c(c23)CCC(CCN2CCCC2)C4)ccc1OCc1ccccn1` (stereo not shown) [Example 190, N-[3-chloro-4-(pyridin-2-ylmethoxy)phenyl]-7-(2-pyrrolidin-1-ylethyl)-5,6,7,8-tetrahydro[1]benzothieno[2,3-d]pyrimidin-4-amine], the IC50 in experiment [1] and in experiment [2] was less than 5 µM each time.

`COCCNCCC1CCc2c(sc3ncnc(Nc4ccc(OCc5ccccn5)c(Cl)c4)c23)C1` (stereo not shown) [Example 176, N-[3-chloro-4-(pyridin-2-ylmethoxy)phenyl]-7-{2-[(2-methoxyethyl)amino]ethyl}-5,6,7,8-tetrahydro[1]benzothieno[2,3-d]pyrimidin-4-amine]: the IC50 in experiment [1] and in experiment [2] was less than 5 µM each time.

For the compound `Clc1cc(Nc2ncnc3sc4c(c23)CCC(CCn2ccnc2)C4)ccc1OCc1ccccn1` (stereo not shown) [Example 182, N-[3-chloro-4-(pyridin-2-ylmethoxy)phenyl]-7-[2-(1H-imidazol-1-yl)ethyl]-5,6,7,8-tetrahydro[1]benzothieno[2,3-d]pyrimidin-4-amine], the IC50 is less than 50 µM in experiment [1] and less than 5 µM in experiment [2].

`CN1CCN(CCC2CCc3c(sc4ncnc(Nc5ccc(OCc6ccc(F)cc6)c(Cl)c5)c34)C2)CC1` (stereo not shown) [Example 154, N-{3-chloro-4-[(4-fluorobenzyl)oxy]phenyl}-7-[2-(4-methylpiperazin-1-yl)ethyl]-5,6,7,8-tetrahydro[1]benzothieno[2,3-d]pyrimidin-4-amine]: the IC50 in experiment [1] and in experiment [2] was less than 5 µM throughout.

For `CN1CCN(CCC2CCc3c(sc4ncnc(Nc5ccc(F)c(Cl)c5)c34)C2)CC1` (stereo not shown) [Example 59, N-(3-chloro-4-fluorophenyl)-7-[2-(4-methyl-1-piperazinyl)ethyl]-5,6,7,8-tetrahydro[1]benzothieno[2,3-d]pyrimidin-4-amine], the IC50 in experiment [1] and in experiment [2] was less than 5 µM in each case.

Take `COCCNCCC1CCc2c(sc3ncnc(Nc4ccc(F)c(Cl)c4)c23)C1` (stereo not shown) [Example 75, N-(3-chloro-4-fluorophenyl)-7-{2-[(2-methoxyethyl)amino]ethyl}-5,6,7,8-tetrahydro[1]benzothieno[2,3-d]pyrimidin-4-amine]: the IC50 in experiment [1] and in experiment [2] was less than 5 µM in each case.

On to `CCN(CC)CCC1CCc2c(sc3ncnc(Nc4ccc(OCc5ccccn5)c(Cl)c4)c23)C1` (stereo not shown) [Example 194, N-[3-chloro-4-(pyridin-2-ylmethoxy)phenyl]-7-[2-(diethylamino)ethyl]-5,6,7,8-tetrahydro[1]benzothieno[2,3-d]pyrimidin-4-amine], for which the IC50 in experiment [1] and in experiment [2] was less than 5 µM throughout.

As to `Cc1ccc(Oc2ccc(Nc3ncnc4sc5c(c34)CCC(CCN3CCCCC3)C5)cc2C)cn1` (stereo not shown) [Example 236, N-{3-methyl-4-[(6-methylpyridin-3-yl)oxy]phenyl}-7-(2-piperidin-1-ylethyl)-5,6,7,8-tetrahydro[1]benzothieno[2,3-d]pyrimidin-4-amine], the IC50 in experiment [1] was less than 50 µM; in experiment [2], less than 5 µM.

As for `CCNCCC1CCc2c(sc3ncnc(Nc4ccc(OCc5ccccn5)c(Cl)c4)c23)C1` (stereo not shown) [Example 193, N-[3-chloro-4-(pyridin-2-ylmethoxy)phenyl]-7-[2-(ethylamino)ethyl]-5,6,7,8-tetrahydro[1]benzothieno[2,3-d]pyrimidin-4-amine], the IC50 in experiment [1] and in experiment [2] was less than 5 µM throughout.

Take `COCCN(C)CCC1CCc2c(sc3ncnc(Nc4ccc(OCc5ccc(F)cc5)c(Cl)c4)c23)C1` (stereo not shown) [Example 152, N-{3-chloro-4-[(4-fluorobenzyl)oxy]phenyl}-7-{2-[(2-methoxyethyl)(methyl)amino]ethyl}-5,6,7,8-tetrahydro[1]benzothieno[2,3-d]pyrimidin-4-amine]: the IC50 in experiment [1] and in experiment [2] was less than 5 µM throughout.

With `CN(C)[C@H]1CCN(CCC2CCc3c(sc4ncnc(Nc5ccc(OCc6ccc(F)cc6)c(Cl)c5)c34)C2)C1` (stereo partly drawn) [Example 157, N-{3-chloro-4-[(4-fluorobenzyl)oxy]phenyl}-7-{2-[(3S)-3-(dimethylamino)pyrrolidin-1-yl]ethyl}-5,6,7,8-tetrahydro[1]benzothieno[2,3-d]pyrimidin-4-amine], the IC50 in experiment [1] and in experiment [2] was less than 5 µM throughout.

Turning to `CN(C)[C@@H]1CCN(C(=O)CC2CCc3c(sc4ncnc(Nc5cccc(Br)c5)c34)C2)C1` (stereo partly drawn) [Example 92, N-(3-bromophenyl)-7-{2-[(3R)-3-(dimethylamino)-1-pyrrolidinyl]-2-oxoethyl}-5,6,7,8-tetrahydro[1]benzothieno[2,3-d]pyrimidin-4-amine], the IC50 in experiment [1] and in experiment [2] was less than 5 µM in each case.

With `O=C(O)CC1CCc2c(sc3ncnc(Nc4cccc(Br)c4)c23)C1` (stereo not shown) [Example 65, {4-[(3-bromophenyl)amino]-5,6,7,8tetrahydro[1]benzothieno[2,3-d]pyrimidin-7-yl}acetic acid], the IC50 in experiment [1] and in experiment [2] was less than 50 µM each time.

On to `Fc1ccc(Nc2ncnc3sc4c(c23)CCC(CCN2CCCC2)C4)cc1Cl` (stereo not shown) [Example 74, N-(3-chloro-4-fluorophenyl)-7-[2-(1-pyrrolidinyl)ethyl]-5,6,7,8-tetrahydro[1]benzothieno[2,3-d]pyrimidin-4-amine], for which the IC50 in experiment [1] and in experiment [2] was less than 5 µM each time.
